Read-outs that look alike come from different tables or passages of the source.
Test system: HCV Huh-luc/neo-ET cells (HCV replicon)
Experiment: Luciferase-based HCV replicon assay, single agents and combinations
Assay type: cell-based, hepatitis C virus
Details: for increase of potency in the presence of Compound 2: Compound 2 at concentrations readily achieved clinically, FIGS. 2b, 3b, Table 2
Experimental: The cell culture component of the assay is performed essentially as described by Bartenschlager et al., Hepatology, 2002, 35, 694-703, wherein exponentially growing HCV Huh-luc/neo-ET cells are seeded at 6×10^3 cells/well in 96 well assay plate. 24 hours later the cells are treated with various concentrations of compound or combination of compounds in triplicate using both fixed ratios and checkerboard matrices of test agents and cultured for 72 hours. The luciferase activity in the wells is determined using Bright-Glo reagent (Promega, Madison, Wis.) with a luminometer (Wallac 1420 Multilabel HTS Counter Victor 2). The background control is replicon cells treated with 100 nM BILN-2061, an inhibitor of the HCV protease. % Inhibition is determined for each compound concentration or combination of compounds in relation to the negative (no compound) control to calculate the EC50. In the case of ANA773, conditioned media from human PBMCs from multiple donors is pooled after treatment with 100 μM of the active of ANA773 for 24 hours.
Compound 2 was evaluated in combination with Interferon α-2a, Telaprevir (HCV NS3/4 protease inhibitor, also known as VX-950), PSI-6130 the active agent of R7128 (HCV NS5B nucleoside inhibitor), and ANA773 (TLR7 agonist). The 50% inhibitory concentration (EC50) of each compound or combination of compounds is determined independently to determine the range of concentrations used to characterize the interaction of two agents in inhibiting the HCV replicon. […] The ratio of the two compounds tested either remained fixed or is varied across the dosing range to explore the greatest combination surface.
The combination data is analyzed using CalcuSyn (Biosoft, Ferguson, Mo.), a computer program based on the method of Chou and Talalay, J. Biol. Chem., 1977, 252, 6438-6442. Combination index (CI) values for each experimental combination are calculated at the EC50, EC75 and EC90 levels. CI values of <1, 1, and >1 indicate synergy, an additive effect, and antagonism, respectively.

| Compound | EC90 (Compound 2 at 0 ng/mL (agent alone), read-out: EC90) [µM] | increase of potency in the presence of Compound 2 | EC90 (in presence of fixed Compound 2 at 6 ng/mL, read-out: EC90) [µM] | EC90 (in presence of fixed Compound 2 at 17 ng/mL, read-out: EC90) [µM] | EC90 (Hepatitis C virus, Huh-luc/neo-ET, Compound 2 at 0 ng/mL (agent alone)) [µM] | EC90 (Hepatitis C virus, Huh-luc/neo-ET, in presence of fixed Compound 2 at 6 ng/mL) [µM] | EC90 (Hepatitis C virus, Huh-luc/neo-ET, in presence of fixed Compound 2 at 17 ng/mL) [µM] | EC90 (Hepatitis C virus, Huh-luc/neo-ET, in presence of fixed Compound 2 at 170 ng/mL) [µM] |
| --- | --- | --- | --- | --- | --- | --- | --- | --- |
| C[C@@]1(F)[C@H](O)[C@@H](CO)O[C@H]1n1ccc(N)nc1=O [PSI-6130] | 11.6 | 4-5 fold | 6 | 2.4 | – | – | – | – |
| CCC[C@H](NC(=O)[C@@H]1[C@H]2CCC[C@H]2CN1C(=O)[C@@H](NC(=O)[C@@H](NC(=O)c1cnccn1)C1CCCCC1)C(C)(C)C)C(=O)C(=O)NC1CC1 [Telaprevir] | – | 2-3 fold | – | – | 2.8 | 2.4 | 1.9 | 1.3 |

— US20110229438A1, “METHOD OF INHIBITING HEPATITUS C VIRUS BY COMBINATION OF A 5,6-DIHYDRO-1H-PYRIDIN-2-ONE AND ONE OR MORE ADDITIONAL ANTIVIRAL COMPOUNDS” (priority 2008, published 2011)
